According to patent US7129271B2, “Compounds for pest control and methods for their use” (The United States of America as represented by the …, priority 2000, dated 2006):
Converted amounts (≈) assume the structure as drawn. Where two headings read alike, the source gives them in different places.

What was measured:
[1] = tested on: adult Xenopsylla cheopis fleas; test: Treated-vial biocidal screening, residual challenge (Example 2); type: in vivo; details: treated vials sat 5 wk; arthropods added for final 24 h
Method: (§1) Samples of the compounds listed below Were obtained from Dr. Karchesy, a co-inventor, and screened for biocidal activities against nymphal Ixodes scapularis. In this example, 2% acetone solutions (wt./vol.) of the compounds were applied to inner surfaces of 2-dram friction cap vials. Vials and caps were treated then allowed to dry for a minimum of 4 hours before placing 10 nymphs in each container. These same vials were used to challenge additional nymphs and adult I. scapularis ticks and adult Xenopsylla cheopis fleas through five weeks to observe any possible residual activity.
(§2) Numbers in parentheses refer to length of treatment in terms of hours (h) or weeks (wk). Data is presented in terms of number killed/number tested. For test periods longer than 24 hours, the treated vials were allowed to sit for the stated period after drying (72 h, 4 wk, or 5 wk) and each group of arthropods was added to the vials for the final 24 h of the test period.

Ixodes scapularis nymphs = test: Residual activity, treated vials aged before loading (Example 9); type: in vivo
Method: (§3) Tick and Flea Bioassays. Concentrations of the compounds were prepared by 2-fold serial dilutions of a 0.5% (wt:vol) solution of the extracts in acetone. The approximate toxicity of individual compounds was determined with a total of 8 doses ranging from 0.002% to 0.25%. […] A control treated with acetone only was run with each series. Tick and flea susceptibility was evaluated using a modified disposable pipette method. See, Barnard, D. R., et al., J. Econ. Entomol. 74:466–69 (1981).
(§4) Groups of 10 nymphal I. scapularis and X. cheopis fleas were used in all tests, resulting in a total of 5,240 nymphs and 4,860 fleas exposed to the compounds. The inner surface of 2-dram friction cap vials were treated with the compound/acetone solution, or acetone only as a control, and left to air-dry overnight. Three to 4 holes were made in the plastic cap to allow for air exchange. Nymphal ticks and adult fleas were then placed directly into the vials using forceps. Vials containing ticks or fleas were placed in desiccators for 24 h at 21° C. and 90% RH. Morbidity and mortality was recorded at 1, 2, 4, 8, and 24 h after initial exposure.

X. cheopis adults = test: Flea bioassay, treated vials (Example 9); type: in vivo; details: 24 h exposure, 95% CI in parentheses
Method: Flea Colonies. Adult X. cheopis fleas (1–3 wk old) were obtained from a colony founded more than eight years ago using adults received from Tom Schwan, Rocky Mountain Laboratories, Hamilton, Mont. The area from which these original adult fleas were obtained, and the resulting colony, have no known histories of pesticide exposure.
as §3, with “acetone.” for “acetone. The approximate toxicity of individual compounds was determined with a total of 8 doses ranging from 0.002% to 0.25%.”, “Entomol.” for “Entomol. 74:466–69 (1981).”
as §4, with “The” for “Groups of 10 nymphal I. scapularis and X. cheopis fleas were used in all tests, resulting in a total of 5,240 nymphs and 4,860 fleas exposed to the compounds. The”

Ae. aegypti adults = test: Mosquito bottle bioassay (Example 9); type: in vivo; details: 24 h exposure, 95% CI in parentheses
Method: Mosquito Colonies. Aedes aegypti adult mosquitoes were obtained from an existing colony at the Centers for Disease Control and Prevention (CDC), Division of Vector-Borne Infectious Diseases (DVBID), Fort Collins, Colo. This colony has been maintained for over fifteen years with no known history of exposure to pesticides. Mosquitoes were reared at 28° C., 85% RH, and a 14:10 h (light:dark) cycle. Larvae were grown in de-ionized water and fed ground liver powder solution ad libitum. Fourth instars were removed and placed in emergence cages, and adults were fed a 2% sucrose solution until assayed. Adults were exposed to test products at 4–7 d after emergence.
(§5) Mosquit Bioassay. Adult mosquitoes were tested using the bottle bioassay method of Brogden, W. G., and McAllister, J. C., J. Am. Mosq. Control Assoc. 14:159–64 (1998), with minor modifications. Natural product extracts were two-fold serially diluted for a total of 8 concentrations ranging from 0.002% to 0.25% in 1.5 ml of acetone. Individual dilutions were added to 250 ml Wheaton glass bottles and capped. Bottles were manipulated to evenly coat all inner surfaces. The caps were removed and bottles were allowed to air-dry overnight. Once bottles were completely dry, 10–50 adult mosquitoes were aspirated into the bottles. Mosquitoes were held in the bottles for 24 h at 23° C. and 85% RH. Morbidity and mortality were recorded at 15, 30, 45, and 60 min and 24 hour intervals. One bottle for each replicate was treated with acetone only and served as a control. The dose-mortality data was evaluated with probit analysis, using the LdP Line software, to determine LC50 and LC90 values.

[2] = tested on: nymphal Ixodes scapularis; test: Treated-vial biocidal screening, 2% acetone solutions (Example 2); type: in vivo; details: for I. scapularis nymphs (24 h), number killed/number tested: 2% acetone solution (wt./vol.) dried in vials; for I. scapularis nymphs (72 h), number killed/number tested: treated vials sat 72 h, arthropods added for final 24 h
Method: as §1, §2

Aedes aegypti adults = test: Residual activity, treated bottles aged before loading (Example 9); type: in vivo
Method: as §5

[3] = tested on: adult I. scapularis ticks; test: Treated-vial biocidal screening, residual challenge (Example 2); type: in vivo, Ixodes scapularis; details: treated vials sat 4 wk; arthropods added for final 24 h
Method: as §1, §2

I. scapularis nymphs = test: Tick bioassay, modified disposable pipette method, treated vials (Example 9); type: in vivo, Ixodes scapularis; details: 24 h exposure, 95% CI in parentheses
Method: Tick Colonies. […] There was no known pesticide used at this location. Ticks were maintained at 21° C., 90% RH, and received a 16:8 h (light:dark) cycle as described in […]. Med. […] Tick and Flea Bioassays. […] A control treated with acetone only was run with each series. Tick and flea susceptibility was evaluated using a modified disposable pipette method. See, Barnard, D. R., et al., J. Econ. […] Three to 4 holes were made in the plastic cap to allow for air exchange. Nymphal ticks and adult fleas were then placed directly into the vials using forceps. Vials containing ticks or fleas were placed in desiccators for 24 h at 21° C. and 90% RH. […] For each time point, if ticks were incapable of movement, maintaining normal posture, leg coordination, ability to right themselves, or any signs of life, they were considered moribund or dead.

[4] = tested on: ticks, fleas, and mosquitoes; test: Residual activity, overall statements for ticks, fleas and mosquitoes (Example 9); details: 1 to 4 weeks after treatment
[5] = tested on: ticks, fleas, formicids and termites; test: Persistence of biocidal activity, vials treated with 2% solutions (Example 5); type: in vivo
Method: as §1
Persistence of biocidal activity was determined for nootkatone and valencene-11,12-epoxide by using the vials as treated with the 2% solutions of Example 2. […] At 11 weeks, the biocidal activity began to dissipate below the 100% mortality level.

nymphal I. scapularis = test: Baseline dose-mortality, method of Maupin and Piesman 1994 (Example 7); type: in vivo; details: nymphal ticks
Description: Baseline dose-mortalities were established for nymphal I. scapularis for nootkatone and valencene-11,12-epoxide using the method described in Maupin, G. O., and Piesman, J., J. Med. Entomol., 31:319–21 (1994).
A comparison of relative potency was made with published data for carbaryl and permethrin (Maupin and Piesman, 1994) and Alaska yellow cedar essential oil (Panella et al., J. Med. Entomol. 34:340–45 (1997) is presented in Table 6.

[6] = tested on: Xenopsylla cheopis adults; test: Residual activity, treated vials aged before loading (Example 9); type: in vivo
Method: as §3, §4

[7] = residual activity at 1 week after treatment
[8] = residual activity at 2 weeks after treatment
[9] = residual activity at 4 weeks after treatment

## C=C(C)C1CC=C2C=CCC(C)C2(C)C1 (centres unmarked) [Compound 6, Nootkatene]
[1]
  X. cheopis adults (5 wk), number killed/number tested: 0/5
Ixodes scapularis nymphs; [7]
  LC50: 2.062 percent concentration, wt:vol
  LC90: 524.656 percent concentration, wt:vol
X. cheopis adults
  LC50: 0.017 (0.012–0.024) percent concentration, wt:vol
  LC90: 0.075 (0.049–0.151) percent concentration, wt:vol
X. cheopis adults; listed as compound 6
  LC50: 0.017 percent concentration, wt:vol
Ae. aegypti adults
  LC50: 0.027 percent concentration, wt:vol
  LC90: 0.059 percent concentration, wt:vol
[2]
  I. scapularis nymphs (24 h), number killed/number tested: 10/10
  I. scapularis nymphs (72 h), number killed/number tested: 4/5
Aedes aegypti adults; [7]
  LC50: 0.132 (0.096–0.236) percent concentration, wt:vol
  LC90: 0.659 (0.329–2.855) percent concentration, wt:vol
[3]
  I. scapularis adults (4 wk), number killed/number tested: 0/5
I. scapularis nymphs
  LC50: 0.011 (0.0086–0.014) percent concentration, wt:vol
  LC90: 0.06 (0.043–0.098) percent concentration, wt:vol
I. scapularis nymphs; listed as compound 6
  LC50: 0.011 percent concentration, wt:vol
[4]
  residual activity (in words): nearly inactive
[4]; listed as compound 6
  residual activity (in words): did not demonstrate any residual activity after one week

## C=C(C)[C@@H]1CCC2=CC(=O)C[C@@H](C)[C@]2(C)C1 [Compound 7, Nootkatone]
[5]; 24 hour exposure at each test through 10 weeks, each group of arthropods
  mortality: 100%
[5]; vials treated with 2% solutions
  time at which biocidal activity began to dissipate below the 100% mortality level: 11 weeks
[1]
  X. cheopis adults (5 wk), number killed/number tested: 5/5
Nymphal I. scapularis
  more effective than essential oil of Alaska yellow cedar: about 98%
  potency relative to essential oil of Alaska yellow cedar: approximately 50 times
Ixodes scapularis nymphs; [7]
  LC50: 0.023 percent concentration, wt:vol
  LC90: 0.13 percent concentration, wt:vol
Ixodes scapularis nymphs; [8]
  LC50: 0.026 (0.018–0.039) percent concentration, wt:vol
  LC90: 0.168 (0.094–0.448) percent concentration, wt:vol
Ixodes scapularis nymphs; [9]
  LC50: 0.026 (0.018–0.039) percent concentration, wt:vol
  LC90: 0.164 (0.093–0.429) percent concentration, wt:vol
[6]; [7]
  LC50: 0.016 (0.012–0.02) percent concentration, wt:vol
  LC90: 0.05 (0.036–0.081) percent concentration, wt:vol
[6]; [8]
  LC50: 0.031 percent concentration, wt:vol
  LC90: 0.134 percent concentration, wt:vol
[6]; [9]
  LC50: 0.031 percent concentration, wt:vol
X. cheopis adults
  LC50: 0.0083 (0.0064–0.01) percent concentration, wt:vol
Ae. aegypti adults; Aedes aegypti, 24 h, read-out: LC50
  LC50: 57 µg/mL (≈ 261 µM)
[2]
  I. scapularis nymphs (24 h), number killed/number tested: 10/10
  I. scapularis nymphs (72 h), number killed/number tested: 5/5
Aedes aegypti adults; [7]
  LC50: 0.02 (0.014–0.029) percent concentration, wt:vol
  LC90: 0.054 (0.041–0.105) percent concentration, wt:vol
Aedes aegypti adults; [8]
  LC50: 0.019 (0.016–0.022) percent concentration, wt:vol
  LC90: 0.046 (0.037–0.061) percent concentration, wt:vol
Aedes aegypti adults; [9]
  LC50: 0.013 (0.011–0.015) percent concentration, wt:vol
  LC90: 0.038 (0.031–0.051) percent concentration, wt:vol
[3]
  I. scapularis adults (4 wk), number killed/number tested: 5/5
I. scapularis nymphs
  LC50: 0.0029 (0.0025–0.0034) percent concentration, wt:vol
[4]
  residual activity (in words): considerable biological activity
